Data reported in ChEMBL document CHEMBL1136031, “8-Aryl xanthines potent inhibitors of phosphodiesterase 5” (Bioorg Med Chem Lett, 2002).
pIC50: −log10 of the molar value. Converted amounts (≈) assume the structure as drawn.

Tests used:
[1] = In vitro microsome metabolism clearance in rat was determined; type: ADME; settings: microsomes
[2] = Volume in steady state distribution value was determined; type: ADME, organism-based; settings: rat, in vivo; read-out: Vss
[3] = Bioavailability; type: ADME, organism-based; settings: rat, in vivo; read-out: BAV
[4] = The pharmacokinetic property, Half-life was determined; type: ADME, organism-based; settings: rat, in vivo
[5] = Partition coefficient (logP); type: physicochemical; settings: octanol/water
Homo sapiens = species on record: Homo sapiens; assay: Caco-2 permeability was determined; type: ADME
[6] = Kinetic solubility at pH 7.4; type: physicochemical; settings: buffer
[7] = Kinetic solubility at pH 5; type: physicochemical; settings: caco-2, pH 5
Phosphodiesterase 3 = Phosphodiesterase 3 (Homo sapiens, UniProt Q14432+Q13370); assay: Inhibition of human platelet Phosphodiesterase 3
Phosphodiesterase 6 = assay: Inhibitory concentration against bovine retina phosphodiesterase 6 activity; type: tissue-based
[8] = biological target: cGMP-specific 3',5'-cyclic phosphodiesterase (Homo sapiens, UniProt O76074); assay: Inhibitory activity against human platelet Phosphodiesterase 5 (PDE5)
Phosphodiesterase 1 = Phosphodiesterase 1 (Bos taurus, UniProt Q01061+P14100); assay: Inhibition of bovine heart Phosphodiesterase 1 (PDE1); type: protein assay
[9] = In vitro microsome metabolism clearance in human was determined; type: ADME; settings: microsomes
[10] = Ratio of IC50 against human platelet PDE5 to that against bovine retina PDE6
[11] = Log D value at pH 7.4; type: physicochemical; settings: buffer
[12] = The pharmacokinetic property, Half-life in rat in vivo; type: ADME, organism-based
[13] = Kinetic solubility at pH 5.9; type: physicochemical; settings: buffer
[14] = Kinetic solubility at pH 6.9, ca; type: physicochemical; settings: buffer
[15] = In vitro microsome metabolism clearance in human was determined; High; type: ADME; settings: microsomes
[16] = Kinetic solubility at pH 5; ca; type: physicochemical; settings: buffer
[17] = Kinetic solubility at pH 7.4, ca; type: physicochemical; settings: buffer
Caco-2 [18] = assay: Caco-2 permeability as biopharmaceutical property; type: functional, cell-based; settings: Homo sapiens
Caco-2 [19] = assay: Caco 2 permeability is determined; type: functional, cell-based; settings: Homo sapiens
[20] = Kinetic solubility at pH 5, ca; type: physicochemical; settings: buffer

| IC50 (Phosphodiesterase 6) | pIC50 [8] | Ratio [10] | Structure (SMILES) | further results |
| --- | --- | --- | --- | --- |
| 83 nM | 8.05 |  | CCOc1ccc(S(=O)(=O)N2CCN(C)CC2)cc1-c1nc2c(=O)n(C)c(=O)n(CC(C)CC)c2[nH]1 (stereo not given) | microsomal CLint [1]: 178 µL/min/mg; Vd [2]: 9.7 L/kg; bioavailability [3]: 11%; half-life [4]: 1.53 h; logP [5]: 3.81; Papp (Homo sapiens): 34.5 ×10⁻⁶ cm/s; solubility kinetic [6]: 100 µg/mL (≈ 193 µM); solubility kinetic [7]: > 200 µg/mL; IC50 (Phosphodiesterase 3): 6030 nM; IC50 (Phosphodiesterase 1): > 10000 nM; microsomal CLint [9]: 114 µL/min/mg |
|  | < 5.00 |  | CC(C)Cn1c(=O)n(C)c(=O)c2[nH]c(-c3ccccc3F)nc21 |  |
|  | < 5.00 |  | CC(C)Cn1c(=O)n(C)c(=O)c2[nH]c(-c3ccccc3OCc3ccccc3)nc21 |  |
| 5600 nM | 7.00 |  | C=CCCn1c(=O)n(C)c(=O)c2nc(-c3cc(S(=O)(=O)N4CCN(C)CC4)ccc3OCC)[nH]c21 | IC50 (Phosphodiesterase 3): > 10000 nM; IC50 (Phosphodiesterase 1): > 10000 nM |
|  | 6.89 |  | CCCCCCn1c(=O)n(C)c(=O)c2[nH]c(-c3cc(S(=O)(=O)N4CCN(C)CC4)ccc3OCC)nc21 |  |
| 1210 nM | 7.23 |  | CCOc1ccc(S(=O)(=O)N2CCN(C)CC2)cc1-c1nc2c(=O)n(C)c(=O)n(Cc3ccc(OC)cc3)c2[nH]1 | IC50 (Phosphodiesterase 3): > 10000 nM; IC50 (Phosphodiesterase 1): 4520 nM |
| 68 nM |  | 3.5 | CCOc1ccc(S(=O)(=O)N2CCN(CCO)CC2)cc1-c1nc2c(=O)n(C)c(=O)n(CC(C)C)c2[nH]1 |  |
|  | 5.82 |  | COCCOc1ccccc1-c1nc2c([nH]1)c(=O)n(C)c(=O)n2CC(C)C |  |
|  | 6.80 |  | CCOc1ccc(S(=O)(=O)N2CCN(C)CC2)cc1-c1nc2c(=O)n(C)c(=O)n(CC3CCCCC3)c2[nH]1 |  |
|  | 7.92 |  | CCCOc1ccc(S(=O)(=O)N2CCN(CCOC)CC2)cc1-c1nc2c([nH]1)c(=O)n(C)c(=O)n2CC(C)C |  |
|  | 6.50 |  | CCOc1ccc(S(=O)(=O)N2CCN(C)CC2)cc1-c1nc2c(=O)[nH]c(=O)n(CC(C)C)c2[nH]1 | IC50 (Phosphodiesterase 3): > 10000 nM; IC50 (Phosphodiesterase 1): > 10000 nM |
| 203 nM |  | 7.5 | CCOc1ccc(S(=O)(=O)N2CCN(CC)CC2)cc1-c1nc2c(=O)n(C)c(=O)n(CC(C)C)c2[nH]1 |  |
|  |  |  | CCOc1ccc(S(=O)(=O)N2CCN(C)CC2)cc1-c1nc2c([nH]1)c(=O)n(C)c(=O)n2CC(C)C | Vd [2]: 9.7 L/kg; bioavailability [3]: 11%; logD [11]: 3.15; half-life [12]: 1.53 h; logP [5]: 3.26; solubility kinetic [13]: > 160 µg/mL; solubility kinetic [14]: 30 µg/mL (≈ 59.5 µM) |
|  | < 5.00 |  | CNc1ccccc1-c1nc2c([nH]1)c(=O)n(C)c(=O)n2CC(C)C |  |
|  | 6.87 |  | CCCCOc1ccccc1-c1nc2c([nH]1)c(=O)n(C)c(=O)n2CC(C)C |  |
| 3 nM |  | 0.5 | CCCOc1ccc(S(=O)(=O)N2CCN(CC)CC2)cc1-c1nc2c(=O)n(C)c(=O)n(CC(C)C)c2[nH]1 |  |
|  | 7.62 |  | CCCOc1ccc(S(=O)(=O)N2CCN(CCN(C)C)CC2)cc1-c1nc2c([nH]1)c(=O)n(C)c(=O)n2CC(C)C |  |
|  | 5.27 |  | CSc1ccccc1-c1nc2c(=O)n(C)c(=O)n(CC(C)C)c2[nH]1 |  |
|  | 7.59 |  | CCOc1ccc(S(=O)(=O)N2CCN(CC)CC2)cc1-c1nc2c([nH]1)c(=O)n(C)c(=O)n2CC(C)C |  |
| 37 nM |  | 1.5 | CCCOc1ccc(S(=O)(=O)N2CCN(CCN(C)C)CC2)cc1-c1nc2c(=O)n(C)c(=O)n(CC(C)C)c2[nH]1 |  |
| 345 nM | 7.00 |  | CCCn1c(=O)n(C)c(=O)c2[nH]c(-c3cc(S(=O)(=O)N4CCN(C)CC4)ccc3OCC)nc21 |  |
|  | 7.20 |  | CCOc1ccc(S(=O)(=O)N2CCN(CCN(C)C)CC2)cc1-c1nc2c([nH]1)c(=O)n(C)c(=O)n2CC(C)C |  |
|  | 8.52 |  | CCCOc1ccc(S(=O)(=O)N2CCC(CCO)CC2)cc1-c1nc2c([nH]1)c(=O)n(C)c(=O)n2CC(C)C | Cl [15]: High; microsomal CLint [1]: 226 µL/min/mg; bioavailability [3]: 0%; logP [5]: 3.67; solubility kinetic [16]: 5 µg/mL (≈ 9.13 µM); solubility kinetic [17]: 5 µg/mL (≈ 9.13 µM) |
| 227 nM | 7.14 | 3.1 | CCOc1ccccc1-c1nc2c(=O)n(C)c(=O)n(CC(C)C)c2[nH]1 |  |
|  | < 5.00 |  | CCOc1ccc(S(=O)(=O)N2CCN(C)CC2)cc1-c1nc2c([nH]1)c(=O)[nH]c(=O)n2C |  |
| 73 nM |  | 0.7 | CC(C)COc1ccccc1-c1nc2c(=O)n(C)c(=O)n(CC(C)C)c2[nH]1 |  |

| IC50 (Phosphodiesterase 6) | pIC50 [8] | Ratio [10] | Structure (SMILES) | further results |
| --- | --- | --- | --- | --- |
| 16 nM |  | 3 | CCCOc1ccc(S(N)(=O)=O)cc1-c1nc2c(=O)n(C)c(=O)n(CC(C)C)c2[nH]1 |  |
| 77 nM | 7.80 | 5 | CC(C)Cn1c(=O)n(C)c(=O)c2[nH]c(-c3cc(S(=O)(=O)N4CCN(C)CC4)ccc3OC(C)C)nc21 |  |
|  | < 5.00 |  | CC(C)Cn1c(=O)n(C)c(=O)c2[nH]c(-c3ccccc3O)nc21 |  |
|  | < 5.00 |  | CC(C)Cn1c(=O)n(C)c(=O)c2[nH]c(-c3ccccc3)nc21 |  |
|  | 7.03 |  | CC(C)COc1ccc(S(=O)(=O)N2CCN(C)CC2)cc1-c1nc2c([nH]1)c(=O)n(C)c(=O)n2CC(C)C |  |
| 214 nM | 7.11 | 2.8 | CC(C)Cn1c(=O)n(C)c(=O)c2[nH]c(-c3ccccc3OC(C)C)nc21 |  |
|  | < 5.00 |  | CC(C)Cn1c(=O)n(C)c(=O)c2[nH]c(-c3ccccc3N(C)C)nc21 |  |
| 146 nM |  | 2.5 | CCOc1ccc(S(=O)(=O)N2CCN(CCN(C)C)CC2)cc1-c1nc2c(=O)n(C)c(=O)n(CC(C)C)c2[nH]1 |  |
|  | 6.98 |  | CC(C)COc1ccccc1-c1nc2c([nH]1)c(=O)n(C)c(=O)n2CC(C)C |  |
| 436 nM |  | 3.2 | CCCCOc1ccccc1-c1nc2c(=O)n(C)c(=O)n(CC(C)C)c2[nH]1 |  |
|  | 8.30 |  | CCCOc1ccc(S(N)(=O)=O)cc1-c1nc2c([nH]1)c(=O)n(C)c(=O)n2CC(C)C |  |
| 87 nM | 7.22 | 1.4 | CCCOc1ccccc1-c1nc2c(=O)n(C)c(=O)n(CC(C)C)c2[nH]1 |  |
| 91 nM |  | 7.5 | CCCOc1ccc(S(=O)(=O)N2CCN(CCOC)CC2)cc1-c1nc2c(=O)n(C)c(=O)n(CC(C)C)c2[nH]1 |  |
|  | 6.26 |  | CCCCCOc1ccccc1-c1nc2c([nH]1)c(=O)n(C)c(=O)n2CC(C)C |  |
| 102 nM |  | 1.1 | CC(C)COc1ccc(S(=O)(=O)N2CCN(C)CC2)cc1-c1nc2c(=O)n(C)c(=O)n(CC(C)C)c2[nH]1 |  |
| 17 nM |  | 5.5 | CCCOc1ccc(S(=O)(=O)N2CCC(CCO)CC2)cc1-c1nc2c(=O)n(C)c(=O)n(CC(C)C)c2[nH]1 | Papp (Caco-2 [18]): 13.2 ×10⁻⁶ cm/s |
| 2380 nM | 7.04 |  | CCOc1ccc(S(=O)(=O)N2CCN(C)CC2)cc1-c1nc2c(=O)n(C)c(=O)n(CC(C)(C)C)c2[nH]1 | IC50 (Phosphodiesterase 3): 5570 nM |
| 100 nM |  | 4.9 | CCOc1ccc(S(=O)(=O)N2CCN(C)CC2)cc1-c1nc2c(=O)n(C)c(=O)n(CC(C)C)c2[nH]1 | Papp (Caco-2 [19]): 25 ×10⁻⁶ cm/s; IC50 (Phosphodiesterase 3): > 10000 nM; IC50 (Phosphodiesterase 1): 3380 nM |
| 6 nM | 8.00 | 0.6 | CCCOc1ccc(S(=O)(=O)N2CCN(C)CC2)cc1-c1nc2c(=O)n(C)c(=O)n(CC(C)C)c2[nH]1 |  |
|  | 7.72 |  | CCOc1ccc(S(=O)(=O)N2CCN(CCO)CC2)cc1-c1nc2c([nH]1)c(=O)n(C)c(=O)n2CC(C)C |  |
| 1150 nM | 7.80 | 72 | CCCOc1ccc(S(=O)(=O)N(C)CCN(C)C)cc1-c1nc2c(=O)n(C)c(=O)n(CC(C)C)c2[nH]1 | logP [5]: 4.9; Papp (Caco-2 [18]): 0.3 ×10⁻⁶ cm/s |
| 242 nM | 7.96 | 22 | CCCOc1ccc(S(=O)(=O)N(CC)CCN(C)C)cc1-c1nc2c(=O)n(C)c(=O)n(CC(C)C)c2[nH]1 |  |
| 15 nM | 8.46 | 4 | CCCOc1ccc(S(=O)(=O)N2CCN(CCO)CC2)cc1-c1nc2c(=O)n(C)c(=O)n(CC(C)C)c2[nH]1 |  |
| 14 nM | 8.46 | 4 | CCCOc1ccc(S(=O)(=O)N2CCN(C(=O)N(C)C)CC2)cc1-c1nc2c(=O)n(C)c(=O)n(CC(C)C)c2[nH]1 | microsomal CLint [1]: 185 µL/min/mg; Vd [2]: 3.4 L/kg; bioavailability [3]: 0%; half-life [4]: 0.367 h; logP [5]: 4.04; solubility kinetic [20]: 25 µg/mL (≈ 43.4 µM); solubility kinetic [17]: 25 µg/mL (≈ 43.4 µM); Papp (Caco-2 [18]): 22.9 ×10⁻⁶ cm/s; microsomal CLint [9]: 71 µL/min/mg |
|  | 8.26 |  | CCCOc1ccc(S(=O)(=O)N2CCN(CC)CC2)cc1-c1nc2c([nH]1)c(=O)n(C)c(=O)n2CC(C)C |  |
| 217 nM | 7.55 |  | CCOc1ccc(S(=O)(=O)N2CCN(C)CC2)cc1-c1nc2c(=O)n(C)c(=O)n(CC3CC3)c2[nH]1 | IC50 (Phosphodiesterase 3): > 10000 nM; IC50 (Phosphodiesterase 1): > 10000 nM |
